{"source": "ChEMBL document CHEMBL6074649", "about": "“An insight into recent developments in imidazole based heterocyclic compounds as anticancer agents: Synthesis, SARs, and mechanism of actions” (Eur J Med Chem, 2024)", "key": {"A549 [1]": {"tested_on": "A549", "assay": "Cytotoxicity against human A549 cells assessed as reduction in cell growth", "assay_type": "functional, cell-based"}, "BXPC-3": {"tested_on": "BXPC-3", "assay": "Antiproliferative activity against human BXPC-3 assessed as reduction in cell growth", "assay_type": "functional, cell-based"}, "MCF7 [2]": {"tested_on": "MCF7", "assay": "Cytotoxicity against human MCF7 cells assessed as reduction in cell growth incubated for 24 hrs by MTT assay", "assay_type": "functional, cell-based", "settings": "MCF7, 24 h"}, "HL-60 [3]": {"tested_on": "HL-60", "assay": "Cytotoxicity against human HL-60 cells assessed as reduction in cell growth incubated for 24 hrs by MTT assay", "assay_type": "functional, cell-based", "settings": "HL-60, 24 h"}, "HCT-116 [4]": {"tested_on": "HCT-116", "assay": "Cytotoxicity against human HCT-116 cells assessed as reduction in cell viability incubated for 24 hrs by MTT assay", "assay_type": "functional, cell-based", "settings": "HCT-116, 24 h"}, "[5]": {"assay": "Cytotoxicity against HUVEC cells", "assay_type": "toxicity, cell-based", "settings": "human"}, "MCF7 [6]": {"tested_on": "MCF7", "assay": "Anticancer activity against human MCF7 cells", "assay_type": "functional, cell-based"}, "PC-3": {"tested_on": "PC-3", "assay": "Anticancer activity against human PC-3 cells", "assay_type": "functional, cell-based"}, "DU-145": {"tested_on": "DU-145", "assay": "Anticancer activity against human DU-145 cells", "assay_type": "functional, cell-based"}, "HepG2 [7]": {"tested_on": "HepG2", "assay": "Anticancer activity against human HepG2 cells", "assay_type": "functional, cell-based"}, "MCF7 [8]": {"tested_on": "MCF7", "assay": "Cytotoxicity against human MCF7 cells after 24 hrs by MTT assay", "assay_type": "functional, cell-based", "settings": "MCF7, 24 h"}, "HepG2 [9]": {"tested_on": "HepG2", "assay": "Cytotoxicity against human HepG2 cells after 24 hrs by MTT assay", "assay_type": "functional, cell-based", "settings": "HepG2, 24 h"}, "HCT-116 [10]": {"tested_on": "HCT-116", "assay": "Cytotoxicity against human HCT-116 cells after 24 hrs by MTT assay", "assay_type": "functional, cell-based", "settings": "HCT-116, 24 h"}, "[11]": {"assay": "Cytotoxicity against human MCF-10A cells measured after 24 hrs by MTT assay", "assay_type": "toxicity, cell-based"}, "A549 [12]": {"tested_on": "A549", "assay": "Antiproliferative activity against human A549 cells assessed as reduction in cell growth by MTT assay", "assay_type": "functional, cell-based"}, "MCF7 [13]": {"tested_on": "MCF7", "assay": "Antiproliferative activity against human MCF7 cells assessed as reduction in cell growth by MTT assay", "assay_type": "functional, cell-based"}, "PANC-1": {"tested_on": "PANC-1", "assay": "Antiproliferative activity against human PANC-1 cells by MTT assay", "assay_type": "functional, cell-based"}, "HT-29 [14]": {"tested_on": "HT-29", "assay": "Antiproliferative activity against human HT-29 cells assessed as reduction in cell growth by MTT assay", "assay_type": "functional, cell-based"}, "NCI-H460": {"tested_on": "NCI-H460", "assay": "Antiproliferative activity against human NCI-H460 cells assessed as reduction in cell growth by MTT assay", "assay_type": "functional, cell-based"}, "NCI-H1299": {"tested_on": "NCI-H1299", "assay": "Antiproliferative activity against human NCI-H1299 cells assessed as reduction in cell growth by MTT assay", "assay_type": "functional, cell-based"}, "A549 [15]": {"tested_on": "A549", "assay": "Antiproliferative activity against A549 cells assessed as reduction in cell growth by MTT assay", "assay_type": "functional, cell-based", "settings": "Homo sapiens"}, "MCF7 [16]": {"tested_on": "MCF7", "assay": "Antiproliferative activity against MCF7 cells assessed as reduction in cell growth by MTT assay", "assay_type": "functional, cell-based", "settings": "Homo sapiens"}, "[17]": {"assay": "Antiproliferative activity against MRC5 cells assessed as reduction in cell growth by MTT assay", "assay_type": "toxicity, cell-based", "settings": "human"}, "HeLa": {"tested_on": "HeLa", "assay": "Antiproliferative activity against human HeLa cells assessed as reduction in cell viability incubated for 72 hrs by MTT assay", "assay_type": "functional, cell-based"}, "HT-29 [18]": {"tested_on": "HT-29", "assay": "Antiproliferative activity against human HT-29 cells assessed as reduction in cell viability incubated for 72 hrs by MTT assay", "assay_type": "functional, cell-based", "settings": "HT-29, 72 h"}, "A549 [19]": {"tested_on": "A549", "assay": "Antiproliferative activity against human A549 cells assessed as reduction in cell viability incubated for 72 hrs by MTT assay", "assay_type": "functional, cell-based", "settings": "A549, 72 h"}, "MCF7 [20]": {"tested_on": "MCF7", "assay": "Antiproliferative activity against human MCF7 cells assessed as reduction in cell viability incubated for 72 hrs by MTT assay", "assay_type": "functional, cell-based", "settings": "MCF7, 72 h"}, "Jurkat": {"tested_on": "Jurkat", "assay": "Antiproliferative activity against human Jurkat cells assessed as reduction in cell viability incubated for 72 hrs by MTT assay", "assay_type": "functional, cell-based"}, "RS4-11": {"tested_on": "RS4-11", "assay": "Antiproliferative activity against human RS4-11 cells assessed as reduction in cell viability incubated for 72 hrs by MTT assay", "assay_type": "functional, cell-based", "settings": "RS4-11, 72 h"}, "HL-60 [21]": {"tested_on": "HL-60", "assay": "Antiproliferative activity against human HL-60 cells assessed as reduction in cell viability incubated for 72 hrs by MTT assay", "assay_type": "functional, cell-based", "settings": "HL-60, 72 h"}, "Tubulin": {"molecular_target": "Tubulin", "assay": "Inhibition of tubulin polymerization (unknown origin)", "assay_type": "protein-complex assay, Homo sapiens"}, "MDA-MB-231": {"tested_on": "MDA-MB-231", "assay": "Anticancer activity against human MDA-MB-231 cells assessed as reduction in cell viability measured for 24 hrs by MTT assay", "assay_type": "functional, cell-based", "settings": "MDA-MB-231, 24 h"}, "[22]": {"assay": "Anticancer activity against human MCF-10A cells assessed as reduction in cell viability measured for 24 hrs by MTT assay", "assay_type": "toxicity, cell-based"}}, "note": "pIC50: −log10 of the molar value.", "data": [{"smiles": "COc1ccc2cc([C@H](C)C3=NC(Cc4ccccc4)C(=O)N3/N=C/c3ccc(N(C)C)cc3)ccc2c1", "note": "(stereo partly drawn)", "values": [{"measurement": "pIC50", "setting": "A549 [1]", "result": 5.03}, {"measurement": "pIC50", "setting": "BXPC-3", "result": 4.74}]}, {"smiles": "S=c1[nH]c(-n2nnc3ccccc32)cn1-c1ccc(Cl)cc1Cl", "values": [{"measurement": "pIC50", "setting": "MCF7 [2]", "result": 6.24}, {"measurement": "pIC50", "setting": "HL-60 [3]", "result": 6.40}, {"measurement": "pIC50", "setting": "HCT-116 [4]", "result": 6.62}, {"measurement": "pIC50", "setting": "[5]", "result": 4.87}]}, {"smiles": "Cc1nc([N+](=O)[O-])c(N2CCN(CCCBr)CC2)n1Cc1ccccc1", "values": [{"measurement": "pIC50", "setting": "MCF7 [6]", "result": 4.34}, {"measurement": "pIC50", "setting": "PC-3", "result": 4.31}, {"measurement": "pIC50", "setting": "DU-145", "result": 4.27}, {"measurement": "pIC50", "setting": "HepG2 [7]", "result": 4.49}]}, {"smiles": "CC(=O)O[C@@]12CO[C@@H]1C[C@H](O)[C@@]1(C)C(=O)[C@H](O)C3=C(C)[C@@H](OC(=O)[C@H](O)[C@@H](NC(=O)OC(C)(C)C)c4ccccc4)C[C@@](O)([C@@H](OC(=O)c4ccccc4)[C@H]21)C3(C)C", "note": "[DOCETAXEL ANHYDROUS]", "values": [{"measurement": "pIC50", "setting": "MCF7 [8]", "result": 4.96}, {"measurement": "pIC50", "setting": "HepG2 [9]", "result": 5.09}, {"measurement": "pIC50", "setting": "HCT-116 [10]", "result": 4.86}, {"measurement": "IC50 at 24 h", "setting": "[11]", "result": 33.2, "unit": "µM"}]}, {"smiles": "COc1ccc(-c2c[nH]c(=S)n2/N=C/c2ccccc2O)cc1", "values": [{"measurement": "pIC50", "setting": "MCF7 [8]", "result": 5.97}, {"measurement": "pIC50", "setting": "HepG2 [9]", "result": 5.89}, {"measurement": "pIC50", "setting": "HCT-116 [10]", "result": 5.40}, {"measurement": "IC50 at 24 h", "setting": "[11]", "result": 27.8, "unit": "µM"}]}, {"smiles": "NS(=O)(=O)c1ccc(-n2c(-c3ccccc3Br)nc(-c3ccccc3)c2-c2ccccc2)cc1", "values": [{"measurement": "pIC50", "setting": "A549 [12]", "result": 5.55}, {"measurement": "pIC50", "setting": "MCF7 [13]", "result": 5.57}, {"measurement": "pIC50", "setting": "PANC-1", "result": 5.60}, {"measurement": "pIC50", "setting": "HT-29 [14]", "result": 5.51}]}, {"smiles": "CCOC(=O)N1CCN(c2c([N+](=O)[O-])nc(CC)n2CC)CC1", "values": [{"measurement": "pIC50", "setting": "MCF7 [6]", "result": 4.53}, {"measurement": "pIC50", "setting": "PC-3", "result": 4.30}, {"measurement": "pIC50", "setting": "DU-145", "result": 4.37}, {"measurement": "pIC50", "setting": "HepG2 [7]", "result": 5.25}]}, {"smiles": "CN(C)CCCOc1ccc(-c2nc(-c3ccc([N+](=O)[O-])o3)[nH]c2-c2ccc(OCCCN(C)C)cc2)cc1", "values": [{"measurement": "pIC50", "setting": "NCI-H460", "result": 5.16}, {"measurement": "pIC50", "setting": "NCI-H1299", "result": "> 7.00"}, {"measurement": "pIC50", "setting": "A549 [15]", "result": 5.17}, {"measurement": "pIC50", "setting": "MCF7 [16]", "result": 5.17}, {"measurement": "pIC50", "setting": "[17]", "result": 5.15}]}, {"smiles": "CCOc1ccc(-c2nccn2-c2cc(OC)c(OC)c(OC)c2)cc1Cl", "values": [{"measurement": "pIC50", "setting": "HeLa", "result": 8.42}, {"measurement": "pIC50", "setting": "HT-29 [18]", "result": 9.40}, {"measurement": "pIC50", "setting": "A549 [19]", "result": 9.24}, {"measurement": "pIC50", "setting": "MCF7 [20]", "result": 9.15}, {"measurement": "pIC50", "setting": "Jurkat", "result": 9.05}, {"measurement": "pIC50", "setting": "RS4-11", "result": 8.92}, {"measurement": "pIC50", "setting": "HL-60 [21]", "result": 8.74}, {"measurement": "pIC50", "setting": "Tubulin", "result": 6.06}]}, {"smiles": "C#Cc1cccc(Nc2ncnc3cc(OCCOC)c(OCCOC)cc23)c1", "note": "[ERLOTINIB]", "values": [{"measurement": "pIC50", "setting": "A549 [1]", "result": 4.60}, {"measurement": "pIC50", "setting": "BXPC-3", "result": 5.01}]}, {"smiles": "CCOC(=O)c1ccccc1-n1c(-c2c(O)[nH]c(=O)[nH]c2=O)cnc1C", "values": [{"measurement": "pIC50", "setting": "MDA-MB-231", "result": 4.27}, {"measurement": "IC50 at 24 h", "setting": "[22]", "result": "> 100", "unit": "µM"}]}]}
